# According to patent US11884675B2, “Heterocyclic compounds as triggering receptor expressed on myeloid cells 2 agonists and methods of use” (AMGEN INC., priority 2020, dated 2024):
# Target: hTREM2 (Homo sapiens, UniProt Q9NZC2)
# Experiment: TREM2 agonist potency by Syk phosphorylation (AlphaLisa) in HEK293T-hTREM2 cells, used for Examples 306-429
# Format: cell-based
# Set-up: expressed in transfected cells; host or cells: HEK293T (HEK293T-hTREM2 cells)
# Conditions: HEK293 Cells
# Experimental: In vitro Measurement of Triggering Receptor Expressed on Myeloid Cells 2 activity using cellular phosphorylation of Spleen Tyrosine Kinase (“Syk”) Assays used for Examples 306-429
# Measurement of TREM2 agonist potency was done using a HEK cell line expressing human TREM2 and DAP12 (HEK293T-hTREM2 cells). Binding of small molecules to, and activation of, TREM2 increases the phosphorylation of Syk. The resultant levels of Syk phosphorylation were measured using a commercial AlphaLisa reagent kit. To perform the assay, HEK-hTREM2 cells were plated at 14,000 cells per well in a 384 well plate, in 25 μL, of complete growth media and incubated at 37° C., 5% CO2 for 20-24 hours. Prior to the assay, test compounds were diluted in the 384 well plates in assay buffer and allowed to equilibrate for 30 minutes. Growth media was removed from cell plates by inversion on blotting paper, and 25 μL of test compounds in assay buffer was added to cells. Cells were incubated for 45 minutes at room temperature. After 45 minutes, assay buffer was removed and 10 μL of lysis buffer was added. Plates were shaken for 20 minutes at 350 RPM at room temperature. After complete lysis, AlphaLisa reagents were added to the lysate, and fluourescence intensity was measured using a Perkin Elmer Envision plate reader. Intensities were used to generate a standard curve, and % activation was calculated. Curve fitting was performed using Prism v9 software, log(agonist) vs response-variable slope (four parameters), and EC50s were calculated from the curve fit.
# The results presented in Table 20 have been generated with the in vitro assay described above for Examples 306-429. This assay may be used to test any of the compounds described herein to assess and characterize a compound's ability to act as an agonist of TREM2.
# hTREM2, sequence (Q9NZC2 19-230): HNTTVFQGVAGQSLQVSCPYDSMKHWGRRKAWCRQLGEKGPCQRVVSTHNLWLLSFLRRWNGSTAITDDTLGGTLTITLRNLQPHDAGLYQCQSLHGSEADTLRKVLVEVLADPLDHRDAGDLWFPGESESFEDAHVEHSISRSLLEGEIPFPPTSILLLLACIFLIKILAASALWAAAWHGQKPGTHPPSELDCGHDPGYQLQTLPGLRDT
# hTREM2, sequence (O43914 22-113 partner): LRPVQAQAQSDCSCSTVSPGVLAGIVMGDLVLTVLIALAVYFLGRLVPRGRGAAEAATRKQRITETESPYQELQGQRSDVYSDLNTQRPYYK
row,EC50 [nM],Structure (SMILES)
1,500 to 3000,"Cc1cnc2c(C34CC(C)(C3)C4)nc([C@H]3C[C@@H](C)O[C@@H](c4cnn(C5CC5)c4)C3)cc2n1 [Example 421, 7-((2R,4S,6R)-2-(1-cyclopropyl-1H-pyrazol-4-yl)-6-methyltetrahydro-2H-pyran-4-yl)-2-methyl-5-(3-methylbicyclo[1.1.1]pentan-1-yl)pyrido[3,4-b]pyrazine]"
2,≤ 50,"Cc1cc(C2CC(c3cc4nc(C)c(C)cc4c(-c4ccc(F)cc4F)n3)CCO2)ccn1 (stereo not drawn) [Example 328, 5-(2,4-difluorophenyl)-2,3-dimethyl-7-(2-(2-methylpyridin-4-yl)tetrahydro-2H-pyran-4-yl)-1,6-naphthyridine]"
3,≤ 50,"Cc1cc([C@H]2C[C@@H](c3nc(-c4ccc(F)cc4F)c4ccc(C)nc4n3)CCO2)ccn1 (racemic) [Example 323, 4-(2,4-difluorophenyl)-7-methyl-2-(2-(2-methylpyridin-4-yl)tetrahydro-2H-pyran-4-yl)pyrido[2,3-d]pyrimidine]"
4,≤ 50,"Cc1cc([C@@H]2CN(c3nc(-c4ccc(Cl)c(F)c4F)c4nc(C)c(C)nc4n3)CCO2)ccn1 [Example 364, (R)-4-(4-(4-chloro-2,3-difluorophenyl)-6,7-dimethylpteridin-2-yl)-2-(2-methylpyridin-4-yl)morpholine]"
5,≤ 50,"Cc1cnc2c(-c3ccc(F)cc3F)nc([C@H]3CCO[C@@H](c4cnn(C5CC5)c4)C3)nc2n1 [Example 330, 2-[(2R,4S)-2-(1-cyclopropylpyrazol-4-yl)tetrahydropyran-4-yl]-4-(2,4-difluorophenyl)-7-methyl-pteridine]"
6,≤ 50,"Cc1cc([C@H]2C[C@@H](c3cc4nc(C)c(C)cc4c(-c4ccc(Cl)cc4F)n3)CCO2)ccn1 (racemic) [Example 401, 5-(4-chloro-2-fluoro-phenyl)-2,3-dimethyl-7-[2-(2-methyl-4-pyridyl)tetrahydropyran-4-yl]-1,6-naphthyridine]"
7,50 to 500,"COc1cc([C@@H]2CN(c3nc(-c4ccc(Cl)cc4F)c4nc(C)c(C)nc4n3)CCO2)ccn1 [Example 336, (R)-4-(4-(4-chloro-2-fluorophenyl)-6,7-dimethylpteridin-2-yl)-2-(2-methoxypyridin-4-yl)morpholine]"
8,50 to 500,"Cc1nc2nc([C@@H]3CCO[C@@H](c4cnn(C5CC5)c4)C3)nc(-c3ccc(C(F)(F)F)cc3F)c2nc1C [Example 412, 2-((2R,4R)-2-(1-cyclopropyl-1H-pyrazol-4-yl)tetrahydro-2H-pyran-4-yl)-4-(2-fluoro-4-(trifluoromethyl)phenyl)-6,7-dimethylpteridine]"
9,50 to 500,"Cc1cnc2c(-c3ccc(F)cc3F)nc([C@H]3CCO[C@@H](c4cnn(C5CC5)c4)C3)cc2n1 (racemic) [Example 388, 5-(2,4-difluorophenyl)-2-methyl-7-[2-(1-cyclopropylpyrazol-4-yl)tetrahydropyran-4-yl]pyrido[3,4-b]pyrazine]"
10,≤ 50,"Cc1cnc2c(C34CC(C(F)(F)F)(C3)C4)nc(N3C[C@H](C)O[C@@H](c4cnn(C5CC5)c4)C3)nc2n1 [Example 404, (2S,6S)-2-(1-cyclopropyl-1H-pyrazol-4-yl)-6-methyl-4-(7-methyl-4-(3-(trifluoromethyl)bicyclo[1.1.1]pentan-1-yl)pteridin-2-yl)morpholine]"
11,≤ 50,"Cc1cnc2c(C34CC(C(F)(F)F)(C3)C4)nc(C3CCOC(c4cnn(C5CC5)c4)C3)nc2n1 (stereo not drawn) [Example 360, 2-(2-(1-cyclopropyl-1H-pyrazol-4-yl)tetrahydro-2H-pyran-4-yl)-7-methyl-4-(3-(trifluoromethyl)bicyclo[1.1.1]pentan-1-yl)pteridine]"
12,≤ 50,"Cc1cc([C@H]2C[C@H](c3cc4nc(C)c(C)cc4c(-c4ccc(F)cc4F)n3)CCO2)ccn1 (racemic) [Example 400, 5-(2,4-difluorophenyl)-2,3-dimethyl-7-[2-(2-methyl-4-pyridyl)tetrahydropyran-4-yl]-1,6-naphthyridine]"
